ChEMBL document CHEMBL4002643, “Tubulin-binding dibenz[c,e]oxepines: Part 2. Structural variation and biological evaluation as tumour vasculature disrupting agents” (Bioorg Med Chem, 2017)

How the values were obtained:
CCRF-CEM = assay: Cytotoxicity against human CCRF-CEM cells assessed as growth inhibition after 48 hrs by SRB assay; type: functional
SR = assay: Cytotoxicity against human SR cells assessed as growth inhibition after 48 hrs by SRB assay; type: functional
HL-60(TB) = assay: Cytotoxicity against human HL-60(TB) cells assessed as growth inhibition after 48 hrs by SRB assay; type: functional; details: HL-60, 48 h
SF-268 = assay: Cytotoxicity against human SF268 cells assessed as growth inhibition after 48 hrs by SRB assay; type: functional; details: SF-268, 48 h
SW-620 = assay: Cytotoxicity against human SW620 cells assessed as growth inhibition after 48 hrs by SRB assay; type: functional; details: SW-620, 48 h
SK-MEL-2 = assay: Cytotoxicity against human SK-MEL-2 cells assessed as growth inhibition after 48 hrs by SRB assay; type: functional; details: SK-MEL-2, 48 h
EKVX = assay: Cytotoxicity against human EKVX cells assessed as growth inhibition after 48 hrs by SRB assay; type: functional
M14 = assay: Cytotoxicity against human M14 cells assessed as growth inhibition after 48 hrs by SRB assay; type: functional; details: M14, 48 h
SN12C = assay: Cytotoxicity against human SN12C cells assessed as growth inhibition after 48 hrs by SRB assay; type: functional
SK-MEL-5 = assay: Cytotoxicity against human SK-MEL-5 cells assessed as growth inhibition after 48 hrs by SRB assay; type: functional; details: SK-MEL-5, 48 h
LOX IMVI = assay: Cytotoxicity against human LOXIMVI cells assessed as growth inhibition after 48 hrs by SRB assay; type: functional
NCI-H522 = assay: Cytotoxicity against human NCI-H522 cells assessed as growth inhibition after 48 hrs by SRB assay; type: functional; details: NCI-H522, 48 h
NCI-H322M = assay: Cytotoxicity against human NCI-H322M cells assessed as growth inhibition after 48 hrs by SRB assay; type: functional
MDA-MB-435 = assay: Cytotoxicity against human MDA-MB-435 cells assessed as growth inhibition after 48 hrs by SRB assay; type: functional; details: MDA-MB-435, 48 h
HCC 2998 = assay: Cytotoxicity against human HCC2998 cells assessed as growth inhibition after 48 hrs by SRB assay; type: functional; details: HCC 2998, 48 h
[1] = Inhibition of porcine tubulin assembly measured for 30 mins by UV/visible spectrophotometric method; set-up: species or system Sus scrofa
SF-295 = assay: Cytotoxicity against human SF295 cells assessed as growth inhibition after 48 hrs by SRB assay; type: functional; details: SF-295, 48 h
HCT-15 = assay: Cytotoxicity against human HCT15 cells assessed as growth inhibition after 48 hrs by SRB assay; type: functional; details: HCT-15, 48 h
RPMI-8226 = assay: Cytotoxicity against human RPMI8226 cells assessed as growth inhibition after 48 hrs by SRB assay; type: functional; details: RPMI-8226, 48 h
TK-10 = assay: Cytotoxicity against human TK10 cells assessed as growth inhibition after 48 hrs by SRB assay; type: functional; details: TK-10, 48 h
OVCAR-8 = assay: Cytotoxicity against human OVCAR8 cells assessed as growth inhibition after 48 hrs by SRB assay; type: functional; details: OVCAR-8, 48 h
Hs-578T = assay: Cytotoxicity against human Hs 578T cells assessed as growth inhibition after 48 hrs by SRB assay; type: functional
SNB-19 = assay: Cytotoxicity against human SNB19 cells assessed as growth inhibition after 48 hrs by SRB assay; type: functional; details: SNB-19, 48 h
A498 = assay: Cytotoxicity against human A498 cells assessed as growth inhibition after 48 hrs by SRB assay; type: functional; details: A498, 48 h
U-251 = assay: Cytotoxicity against human U251 cells assessed as growth inhibition after 48 hrs by SRB assay; type: functional; details: U-251, 48 h
K562 [2] = assay: Cytotoxicity against human K562 cells assessed as growth inhibition after 48 hrs by SRB assay; type: functional; details: K562, 48 h
A549 = assay: Cytotoxicity against human A549 cells assessed as growth inhibition after 48 hrs by SRB assay; type: functional; details: A549, 48 h
HCT-116 = assay: Cytotoxicity against human HCT116 cells assessed as growth inhibition after 48 hrs by SRB assay; type: functional; details: HCT-116, 48 h
SF-539 = assay: Cytotoxicity against human SF539 cells assessed as growth inhibition after 48 hrs by SRB assay; type: functional; details: SF-539, 48 h
RXF 393 = assay: Cytotoxicity against human RXF393 cells assessed as growth inhibition after 48 hrs by SRB assay; type: functional; details: RXF 393, 48 h
K562 [3] = assay: Cytotoxicity against human K562 cells assessed as growth inhibition after 5 days by MTT assay; type: functional, cell-based; details: K562, 120 h
COLO 205 = assay: Cytotoxicity against human COLO205 cells assessed as growth inhibition after 48 hrs by SRB assay; type: functional; details: COLO 205, 48 h
OVCAR-3 = assay: Cytotoxicity against human OVCAR3 cells assessed as growth inhibition after 48 hrs by SRB assay; type: functional; details: OVCAR-3, 48 h
KM12 = assay: Cytotoxicity against human KM12 cells assessed as growth inhibition after 48 hrs by SRB assay; type: functional; details: KM12, 48 h
CAKI-1 = assay: Cytotoxicity against human Caki1 cells assessed as growth inhibition after 48 hrs by SRB assay; type: functional; details: CAKI-1, 48 h
MDA-MB-468 = assay: Cytotoxicity against human MDA-MB-468 cells assessed as growth inhibition after 48 hrs by SRB assay; type: functional; details: MDA-MB-468, 48 h
T47D = assay: Cytotoxicity against human T47D cells assessed as growth inhibition after 48 hrs by SRB assay; type: functional
MOLT-4 = assay: Cytotoxicity against human MOLT4 cells assessed as growth inhibition after 48 hrs by SRB assay; type: functional; details: MOLT-4, 48 h
BT-549 = assay: Cytotoxicity against human BT549 cells assessed as growth inhibition after 48 hrs by SRB assay; type: functional; details: BT-549, 48 h
NCI-H226 = assay: Cytotoxicity against human NCI-H226 cells assessed as growth inhibition after 48 hrs by SRB assay; type: functional; details: NCI-H226, 48 h
IGROV-1 = assay: Cytotoxicity against human IGROV1 cells assessed as growth inhibition after 48 hrs by SRB assay; type: functional; details: IGROV-1, 48 h
UO-31 = assay: Cytotoxicity against human UO31 cells assessed as growth inhibition after 48 hrs by SRB assay; type: functional; details: UO-31, 48 h
786-0 = assay: Cytotoxicity against human 786-0 cells assessed as growth inhibition after 48 hrs by SRB assay; type: functional; details: 786-0, 48 h
UACC-62 = assay: Cytotoxicity against human UACC62 cells assessed as growth inhibition after 48 hrs by SRB assay; type: functional; details: UACC-62, 48 h
SK-OV-3 = assay: Cytotoxicity against human SKOV3 cells assessed as growth inhibition after 48 hrs by SRB assay; type: functional; details: SK-OV-3, 48 h
HOP-92 = assay: Cytotoxicity against human HOP92 cells assessed as growth inhibition after 48 hrs by SRB assay; type: functional; details: HOP-92, 48 h
MCF7 = assay: Cytotoxicity against human MCF7 cells assessed as growth inhibition after 48 hrs by SRB assay; type: functional; details: MCF7, 48 h
DU-145 = assay: Cytotoxicity against human DU145 cells assessed as growth inhibition after 48 hrs by SRB assay; type: functional; details: DU-145, 48 h
UACC-257 = assay: Cytotoxicity against human UACC257 cells assessed as growth inhibition after 48 hrs by SRB assay; type: functional; details: UACC-257, 48 h
PC-3 = assay: Cytotoxicity against human PC3 cells assessed as growth inhibition after 48 hrs by SRB assay; type: functional; details: PC-3, 48 h
MDA-MB-231 = assay: Cytotoxicity against human MDA-MB-231 cells assessed as growth inhibition after 48 hrs by SRB assay; type: functional; details: MDA-MB-231, 48 h
NCI/ADR-RES = assay: Cytotoxicity against human NCI-ADR-RES cells assessed as growth inhibition after 48 hrs by SRB assay; type: functional
HOP-62 = assay: Cytotoxicity against human HOP62 cells assessed as growth inhibition after 48 hrs by SRB assay; type: functional; details: HOP-62, 48 h
SNB-75 = assay: Cytotoxicity against human SNB75 cells assessed as growth inhibition after 48 hrs by SRB assay; type: functional; details: SNB-75, 48 h
Malme-3M = assay: Cytotoxicity against human MALME-3M cells assessed as growth inhibition after 48 hrs by SRB assay; type: functional
NCI-H23 = assay: Cytotoxicity against human NCI-H23 cells assessed as growth inhibition after 48 hrs by SRB assay; type: functional; details: NCI-H23, 48 h
NCI-H460 = assay: Cytotoxicity against human NCI-H460 cells assessed as growth inhibition after 48 hrs by SRB assay; type: functional; details: NCI-H460, 48 h
OVCAR-4 = assay: Cytotoxicity against human OVCAR4 cells assessed as growth inhibition after 48 hrs by SRB assay; type: functional; details: OVCAR-4, 48 h
DLD-1 [4] = assay: Induction of vascular shutdown in human DLD1 cells xenografted in Balb/C immunodeficient nude mouse assessed as vascular element counts at 400 mg/kg, iv at 24 hrs post dose by […] dye-based microscopic method (reference value: 3.73 +/- 3.1%); type: functional
DLD-1 [5] = assay: Vascular disrupting activity in human DLD1 cells xenografted in Balb/C immunodeficient nude mouse assessed as induction of necrosis by measuring necrotic area at 400 mg/kg, iv at 24 hrs post dose by haematoxylin and eosin staining-based assay (reference value: 19 +/- 9.6%); type: functional
DLD-1 [6] = assay: Induction of vascular shutdown in human DLD1 cells xenografted in Balb/C immunodeficient nude mouse assessed as vascular element counts at 400 mg/kg, iv at 4 hrs post dose by […] dye-based microscopic method (reference value: 3.73 +/- 3.1%); type: functional
DLD-1 [7] = assay: Induction of vascular shutdown in human DLD1 cells xenografted in Balb/C immunodeficient nude mouse assessed as vascular element counts at 400 mg/kg, iv at 1 hr post dose by […] dye-based microscopic method (reference value: 3.73 +/- 3.1%); type: functional
DLD-1 [8] = assay: Induction of vascular shutdown in human DLD1 cells xenografted in Balb/C immunodeficient nude mouse at 400 mg/kg, iv by […] dye-based microscopic method; type: functional, organism-based; details: TDE = time-dependent effect
DLD-1 [9] = assay: Vascular disrupting activity in human DLD1 cells xenografted in Balb/C immunodeficient nude mouse assessed as induction of necrosis by measuring necrotic area at 400 mg/kg, iv at 1 hr post dose by haematoxylin and eosin staining-based assay (reference value: 19 +/- 9.6%); type: functional
DLD-1 [10] = assay: Vascular disrupting activity in human DLD1 cells xenografted in Balb/C immunodeficient nude mouse assessed as induction of necrosis by measuring necrotic area at 400 mg/kg, iv at 4 hrs post dose by haematoxylin and eosin staining-based assay (reference value: 19 +/- 9.6%); type: functional

## COc1cc2c(c(OC)c1OC)-c1cc3c(cc1COC2)OCO3
CCRF-CEM
  GI50: 350 nM
SR
  GI50: 170 nM
HL-60(TB)
  GI50: 390 nM
SF-268
  GI50: 1320 nM
SW-620
  GI50: 400 nM
SK-MEL-2
  GI50: 560 nM
EKVX
  GI50: 780 nM
M14
  GI50: 230 nM
SN12C
  GI50: 1050 nM
SK-MEL-5
  GI50: 210 nM
LOX IMVI
  GI50: 870 nM
NCI-H522
  GI50: 390 nM
NCI-H322M
  GI50: 2000 nM
MDA-MB-435
  GI50: 50 nM
HCC 2998
  GI50: 490 nM
[1]
  IC50: > 10000 nM
SF-295
  GI50: 330 nM
HCT-15
  GI50: 480 nM
RPMI-8226
  GI50: 500 nM
TK-10
  GI50: 5130 nM
OVCAR-8
  GI50: 520 nM
Hs-578T
  GI50: 430 nM
SNB-19
  GI50: 680 nM
A498
  GI50: 450 nM
U-251
  GI50: 480 nM
K562 [2]
  GI50: 210 nM
A549
  GI50: 440 nM
HCT-116
  GI50: 370 nM
SF-539
  GI50: 350 nM
RXF 393
  GI50: 200 nM
K562 [3]
  IC50: 85000 nM
COLO 205
  GI50: 340 nM
OVCAR-3
  GI50: 250 nM
KM12
  GI50: 360 nM
CAKI-1
  GI50: 56200 nM
MDA-MB-468
  GI50: 170 nM
T47D
  GI50: 25700 nM
MOLT-4
  GI50: 470 nM
BT-549
  GI50: 540 nM
NCI-H226
  GI50: 2750 nM
IGROV-1
  GI50: 950 nM
UO-31
  GI50: 3980 nM
786-0
  GI50: 500 nM
UACC-62
  GI50: 790 nM
SK-OV-3
  GI50: 470 nM
HOP-92
  GI50: 7080 nM
MCF7
  GI50: 400 nM
DU-145
  GI50: 370 nM
UACC-257
  GI50: 3390 nM
PC-3
  GI50: 540 nM
MDA-MB-231
  GI50: 1200 nM
NCI/ADR-RES
  GI50: 360 nM
HOP-62
  GI50: 690 nM
SNB-75
  GI50: 460 nM
Malme-3M
  GI50: > 100000 nM
NCI-H23
  GI50: 790 nM
NCI-H460
  GI50: 380 nM
OVCAR-4
  GI50: 2190 nM

## COc1cc2c(c(OC)c1OC)-c1ccc(OP(=O)([O-])[O-])cc1[C@@H](NC(C)=O)CC2.[Na+].[Na+]
DLD-1 [4]
  Activity: 0.42%
DLD-1 [5]
  Activity: 91%
DLD-1 [6]
  Activity: 0.12%
DLD-1 [7]
  Activity: 0.03%
DLD-1 [8]
  Activity: Tde
DLD-1 [9]
  Activity: 23.2%
DLD-1 [10]
  Activity: 22.3%

## COc1cc2c(c(OC)c1OC)-c1ccc(N)cc1COC2
[1]
  IC50: > 10000 nM
K562 [3]
  IC50: 10000 nM

## COc1cc2c(c(OC)c1OC)-c1ccc([N+](=O)[O-])cc1COC2
[1]
  IC50: > 10000 nM
K562 [3]
  IC50: 16000 nM

## COc1ccc2c(c1OS(=O)(=O)C(F)(F)F)COCc1cc(OC)c(OC)c(OC)c1-2
[1]
  IC50: 15000 nM
K562 [3]
  IC50: 250 nM
